Source: patent US20080149878A1, “Fluorosurfactants” (priority 2005, published 2008)

Assay: Determination of the surface tension (Krüss tensiometer K12, ring)
Type: physicochemical
Conditions: 20° C.
Excerpt: [table] Further details on the method can be obtained from the publication by the European Commission Classification, Packaging and Labelling of Dangerous Substances in the European Union, Part II—Test Methods, Annex V—Methods for the Determination of Physico-Chemical Properties, Toxicity and Ecotoxicity, Part A, Surface Tension (A.5), January 1997, pages 51-57, and from the OECD Guideline for the Testing of Chemicals, Section 1, Physical-Chemical Properties, Method 115, pages 1-7, adopted: 27, July 95, the contents of which in this respect expressly belong to the disclosure content of the present application.

CCCCCCCCCCS(=O)(=O)[O-].[Na+] [Decane-sulfonic acid Na salt, sodium decanesulfonate]
Surface tension (1.0020 g/l (4.101E−03 mol/l) in deionised water): 66.13 mN/m | Surface tension (2.0015 g/l (8.192E−03 mol/l) in deionised water): 57.70 mN/m | Surface tension (3.0010 g/l (1.228E−02 mol/l) in deionised water): 52.61 mN/m

O=S(=O)(O)CCCCCCCCCCOC(F)(F)F [Example 5, Sodium 10-trifluoromethoxydecane-1-sulfonate]
Surface tension (0.5015 g/l (1.527E−03 mol/l) in deionised water): 59.95 mN/m | Surface tension (1.0000 g/l (3.046E−03 mol/l) in deionised water): 52.55 mN/m | Surface tension (2.0005 g/l (6.093E−03 mol/l) in deionised water): 42.61 mN/m
